# Measured values as given in ChEMBL document CHEMBL6134861 (J Med Chem, 2025).
# Active and inactive are the calls of the source. The rule behind the calls is not given here. Where a SMILES comes first, the peptide text is derived from it. Bridges are numbered along the chain shown (N, C = ends). [ ]: non-standard residue; d: D form. ξ: configuration not given here. ξD = NC(CC(=O)O)C(=O)O
# Assays:
# Type in all cases: cell-based
# [1] = test system: Oocyte; assay: Inhibition of human alpha2/beta2 nAChR expressed in Xenopus laevis oocytes at 10 uM
# [2] = target: Neuronal acetylcholine receptor; alpha2/beta4 (Homo sapiens) (UniProt P30926+Q15822); assay: Inhibition of human alpha2/beta4 nAChR expressed in Xenopus laevis oocytes at 10 uM; conditions: Oocyte
# [3] = target: Neuronal acetylcholine receptor; alpha3/beta4 (Homo sapiens) (UniProt P30926+P32297); assay: Inhibition of human alpha3/beta4 nAChR expressed in Xenopus laevis oocytes at 10 uM; conditions: Oocyte
# [4] = target: Neuronal acetylcholine receptor; alpha3/beta2 (Homo sapiens) (UniProt P17787+P32297); assay: Inhibition of human alpha3/beta2 nAChR expressed in Xenopus laevis oocytes at 10 uM; conditions: Oocyte
# [5] = target: Neuronal acetylcholine receptor; alpha4/beta4 (Homo sapiens) (UniProt P30926+P43681); assay: Inhibition of human alpha4/beta4 nAChR expressed in Xenopus laevis oocytes at 10 uM; conditions: Oocyte
# [6] = target: Neuronal acetylcholine receptor; alpha4/beta2 (Homo sapiens) (UniProt P17787+P43681); assay: Inhibition of human alpha4/beta2 nAChR expressed in Xenopus laevis oocytes at 10 uM; conditions: Oocyte
# [7] = target: Nicotinic acetylcholine receptor alpha6/alpha3/beta4 (Homo sapiens) (UniProt P30926+P32297+Q15825); assay: Inhibition of human alpha6/alpha3/beta4 nAChR expressed in Xenopus laevis oocytes at 10 uM; conditions: Oocyte
# [8] = test system: Oocyte; assay: Inhibition of human alpha6/alpha3/beta2/beta3 nAChR expressed in Xenopus laevis oocytes at 10 uM
# [9] = target: Neuronal acetylcholine receptor; alpha9/alpha10 (Homo sapiens) (UniProt Q9UGM1+Q9GZZ6); assay: Inhibition of human alpha9/alpha10 nAChR expressed in Xenopus laevis oocytes at 10 uM; conditions: Oocyte
# [10] = target: Neuronal acetylcholine receptor subunit alpha-7 (Homo sapiens) (UniProt P36544); assay: Inhibition of human alpha7 nAChR expressed in Xenopus laevis oocytes at 10 uM; conditions: Oocyte
# [11] = target: Neuronal acetylcholine receptor subunit alpha-7 (Rattus norvegicus) (UniProt Q05941); assay: Inhibition of rat alpha7 nAChR expressed in Xenopus laevis oocytes assessed as inhibition of acetylcholine-induced current at 100 nM preincubated with compound for 1 hr followed by compound washout and measured for 20 mins by two electrode voltage-clamp assay; conditions: Oocyte
# [12] = target: Neuronal acetylcholine receptor subunit alpha-7 (Rattus norvegicus) (UniProt Q05941); assay: Inhibition of rat alpha7 nAChR expressed in Xenopus laevis oocytes assessed as inhibition of acetylcholine-induced current at 10 uM by two electrode voltage-clamp assay; conditions: Oocyte
# [13] = target: Neuronal acetylcholine receptor; alpha3/beta2 (Rattus norvegicus) (UniProt P04757+P12390); assay: Inhibition of rat alpha3/beta2 nAChR expressed in Xenopus laevis oocytes assessed as inhibition of acetylcholine-induced current at 10 uM by two electrode voltage-clamp assay; conditions: Oocyte
# [14] = test system: Oocyte; assay: Inhibition of rat alpha6/alpha3/beta2/beta3 nAChR expressed in Xenopus laevis oocytes assessed as inhibition of acetylcholine-induced current at 10 uM by two electrode voltage-clamp assay
# [15] = target: Neuronal acetylcholine receptor; alpha3/beta4 (Rattus norvegicus) (UniProt P04757+P12392); assay: Inhibition of rat alpha3/beta4 nAChR expressed in Xenopus laevis oocytes assessed as inhibition of acetylcholine-induced current at 10 uM by two electrode voltage-clamp assay; conditions: Oocyte
# [16] = target: Nicotinic acetylcholine receptor alpha6/alpha3/beta4 (Rattus norvegicus) (UniProt P04757+P12392+P43143); assay: Inhibition of rat alpha6/alpha3/beta4 nAChR expressed in Xenopus laevis oocytes assessed as inhibition of acetylcholine-induced current at 10 uM by two electrode voltage-clamp assay; conditions: Oocyte
# [17] = target: Neuronal acetylcholine receptor; alpha2/beta2 (Rattus norvegicus) (UniProt P12389+P12390); assay: Inhibition of rat alpha2/beta2 nAChR expressed in Xenopus laevis oocytes assessed as inhibition of acetylcholine-induced current at 10 uM by two electrode voltage-clamp assay; conditions: Oocyte
# [18] = test system: Oocyte; assay: Inhibition of rat alpha2/beta4 nAChR expressed in Xenopus laevis oocytes assessed as inhibition of acetylcholine-induced current at 10 uM by two electrode voltage-clamp assay
# [19] = target: T1, Neuronal acetylcholine receptor; alpha4/beta2 (Rattus norvegicus) (UniProt P09483+P12390); assay: Inhibition of rat alpha4/beta2 nAChR expressed in Xenopus laevis oocytes assessed as inhibition of acetylcholine-induced current at 10 uM by two electrode voltage-clamp assay; conditions: Oocyte
# [20] = target: T1, Neuronal acetylcholine receptor; alpha4/beta2 (Rattus norvegicus); assay: Inhibition of rat alpha4/beta4 nAChR expressed in Xenopus laevis oocytes assessed as inhibition of acetylcholine-induced current at 10 uM by two electrode voltage-clamp assay; conditions: Oocyte
# [21] = target: Nicotinic acetylcholine receptor alpha9/alpha10 (Rattus norvegicus) (UniProt P43144+Q9JLB5); assay: Inhibition of rat alpha9/alpha10 nAChR expressed in Xenopus laevis oocytes assessed as inhibition of acetylcholine-induced current at 10 uM by two electrode voltage-clamp assay; conditions: Oocyte
# [22] = test system: Oocyte; assay: Inhibition of mouse alpha1/beta1/delta/epsilon nAChR expressed in Xenopus laevis oocytes assessed as inhibition of acetylcholine-induced current at 10 uM by two electrode voltage-clamp assay
# [23] = Inhibition of rat alpha6/alpha3/beta2/beta3 nAChR expressed in Xenopus laevis oocytes assessed as inhibition of acetylcholine-induced current by two electrode voltage-clamp assay; conditions: Oocyte
# [24] = Inhibition of rat alpha2/beta4 nAChR expressed in Xenopus laevis oocytes assessed as inhibition of acetylcholine-induced current by two electrode voltage-clamp assay; conditions: Oocyte
# [25] = Inhibition of mouse alpha1/beta1/delta/epsilon nAChR expressed in Xenopus laevis oocytes assessed as inhibition of acetylcholine-induced current by two electrode voltage-clamp assay; conditions: Oocyte
# Sequence of Neuronal acetylcholine receptor subunit alpha-7 (Rattus norvegicus) (Q05941 whole entry): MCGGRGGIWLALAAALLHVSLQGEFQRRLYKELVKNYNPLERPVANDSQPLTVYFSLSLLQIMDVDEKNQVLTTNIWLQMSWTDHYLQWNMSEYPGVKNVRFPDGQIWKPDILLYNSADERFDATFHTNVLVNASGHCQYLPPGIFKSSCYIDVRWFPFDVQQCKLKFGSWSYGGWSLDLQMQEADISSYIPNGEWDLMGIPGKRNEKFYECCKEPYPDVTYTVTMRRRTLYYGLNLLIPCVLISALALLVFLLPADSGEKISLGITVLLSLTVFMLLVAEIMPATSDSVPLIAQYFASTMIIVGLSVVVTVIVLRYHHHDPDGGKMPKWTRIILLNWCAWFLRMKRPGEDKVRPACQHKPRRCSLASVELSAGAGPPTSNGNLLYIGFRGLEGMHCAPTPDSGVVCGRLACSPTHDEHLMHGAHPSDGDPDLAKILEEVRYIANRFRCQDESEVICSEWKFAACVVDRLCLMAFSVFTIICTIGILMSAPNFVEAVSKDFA
# Sequence of Neuronal acetylcholine receptor subunit alpha-7 (Homo sapiens) (P36544 whole entry): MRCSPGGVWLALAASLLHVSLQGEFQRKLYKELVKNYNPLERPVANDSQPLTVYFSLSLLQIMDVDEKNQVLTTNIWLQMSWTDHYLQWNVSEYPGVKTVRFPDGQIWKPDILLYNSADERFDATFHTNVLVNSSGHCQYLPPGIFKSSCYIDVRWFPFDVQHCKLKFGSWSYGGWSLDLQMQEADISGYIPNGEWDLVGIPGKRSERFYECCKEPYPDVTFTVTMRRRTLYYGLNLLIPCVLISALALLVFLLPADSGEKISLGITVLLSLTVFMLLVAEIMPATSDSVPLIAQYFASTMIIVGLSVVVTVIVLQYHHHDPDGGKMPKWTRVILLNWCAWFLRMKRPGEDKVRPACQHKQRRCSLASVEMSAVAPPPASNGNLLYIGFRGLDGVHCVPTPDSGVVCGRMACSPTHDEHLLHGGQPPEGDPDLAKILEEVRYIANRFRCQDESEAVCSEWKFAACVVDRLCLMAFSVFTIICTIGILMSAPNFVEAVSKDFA
smiles,measurement,setting,value
"CC[C@H](C)[C@@H]1NC(=O)[C@H](CC(=O)O)NC(=O)[C@@H]2CCCN2C(=O)[C@H](CC(N)=O)NC(=O)[C@H](CCC(N)=O)NC(=O)[C@H](CC(C)C)NC(=O)[C@H]([C@@H](C)CC)NC(=O)[C@@H]2CSSC[C@H](NC(=O)[C@@H](N)CC(=O)O)C(=O)N[C@@H](CSSC[C@@H](C(N)=O)NC1=O)C(=O)N[C@@H](CO)C(=O)N[C@@H](CCC(=O)O)C(=O)N1CCC[C@H]1C(=O)N1CCC[C@H]1C(=O)N2 (H-DCCSEPPCILQNPDIC-NH2; disulfide 2-8, 3-16)",inhibition,[1],inactive
same,inhibition,[2],inactive
same,inhibition,[3],inactive
same,inhibition,[4],inactive
same,inhibition,[5],inactive
same,inhibition,[6],inactive
same,inhibition,[7],inactive
same,inhibition,[8],inactive
same,inhibition,[9],inactive
same,inhibition,[10],inactive
same,inhibition,[11],inactive
same,inhibition,[12],inactive
same,inhibition,[13],inactive
same,inhibition,[14],inactive
same,inhibition,[15],inactive
same,inhibition,[16],inactive
same,inhibition,[17],inactive
same,inhibition,[18],inactive
same,inhibition,[19],inactive
same,inhibition,[20],inactive
same,inhibition,[21],inactive
same,inhibition,[22],inactive
"CC[C@H](C)[C@@H]1NC(=O)[C@H](CC(=O)O)NC(=O)[C@@H]2CCCN2C(=O)[C@H](CC(N)=O)NC(=O)[C@H](CCC(N)=O)NC(=O)[C@H](CC(C)C)NC(=O)[C@H]([C@@H](C)CC)NC(=O)[C@@H]2CSSC[C@H](NC(=O)C(N)CC(=O)O)C(=O)N[C@@H](CSSC[C@@H](C(N)=O)NC1=O)C(=O)N[C@@H](CO)C(=O)N[C@@H](C)C(=O)N1CCC[C@H]1C(=O)N1CCC[C@H]1C(=O)N2 (stereo not given in full) (H-[ξD]CCSAPPCILQNPDIC-NH2; disulfide 2-8, 3-16)",IC50,[23],112 nM
same,IC50,[24],> 10 µM
same,IC50,[25],> 10 µM
